Test results reported in US20090137396A1, “Piperazine Compounds with a Herbicidal Action” (BASF SE, priority 2006, published 2009).

Tested on: Abutilon theophrasti (ABUTH)
Experiment: greenhouse experiment, pre-emergence treatment, ABUTH
Format: in vivo
Settings: pre-emergence method, application rate 3 kg/ha; scale from 0 to 100
Excerpt: (§1) The seeds of the test plants were sown separately for each species. For the pre-emergence treatment, the active ingredients, which had been suspended or emulsified in water, were applied directly after sowing by means of finely distributing nozzles. The containers were irrigated gently to promote germination and growth and subsequently covered with transparent plastic hoods until the plants had rooted. This cover causes uniform germination of the test plants, unless this has been impaired by the active ingredients. Depending on the species, the plants were kept at 10-25° C. or 20-35° C. The test period extended over 2 to 4 weeks. During this time, the plants were tended, and their response to the individual treatments was evaluated. Evaluation was carried out using a scale from 0 to 100. 100 means no emergence of the plants, or complete destruction of at least the aerial moieties, and 0 means no damage, or normal course of growth. Good herbicidal activity is given for values of at least 70 and very good herbicidal activity is given for values of at least 85. The plants used in the greenhouse experiments belonged to the following species: [table]

Question: Which “herbicidal activity against ABUTH” value does the source give for `COC(=O)c1ccccc1C=C1C(=O)N(C)C(Cc2ccccc2)C(=O)N1C` (stereo not shown) [Example 73] here?
Answer: Its value is “good (Good herbicidal activity is given for values of at least 70)”.

Tested on: Amaranthus retroflexus (AMARE)
Experiment: greenhouse experiment, pre-emergence treatment, AMARE
Format: in vivo
Settings: pre-emergence method, application rate 1 kg/ha; scale from 0 to 100
Excerpt: as §1

Question: For `CN1C(=O)C(Cc2ccccc2)N(C(=O)c2ccccc2)C(=O)C1=Cc1ccccc1C#N` (stereo not shown) [Example 137], which “herbicidal activity against AMARE” value is on record?
Answer: The value was “good (Good herbicidal activity is given for values of at least 70)”.

Tested on: test plants
Experiment: greenhouse experiment, pre-emergence treatment, species not stated
Format: in vivo
Settings: pre-emergence method; scale from 0 to 100
Excerpt: as §1

Question: Which herbicidal activity does the source give for `CN1C(=O)C(Cc2ccccc2)N(C)C(=O)C1=Cc1ccsc1[N+](=O)[O-]` (stereo not shown) [Example 191] here?
Answer: Its herbicidal activity is “good to very good”.

Question: For `CC(=O)N1C(=O)C(=Cc2ccccc2C#N)N(C)C(=O)C1Cc1ccccc1` (stereo not shown) [Example 140], which herbicidal activity is on record?
Answer: The herbicidal activity was “good to very good”.

Question: Which herbicidal activity does the source give for `CN1C(=O)C(Cc2ccccc2)N(C)C(=O)C1=Cc1cccnc1Br` (stereo not shown) [Example 204] here?
Answer: The herbicidal activity was “good to very good”.

Question: Which herbicidal activity does the source give for `CN1C(=O)C(Cc2ccccc2)N(C)C(=O)C1=Cc1ccccc1C(F)(F)F` (stereo not shown) [Example 54] here?
Answer: The herbicidal activity was “good to very good”.

Question: For `CN1C(=O)C(Cc2ccccc2)N(C)C(=O)C1=Cc1ncccc1[N+](=O)[O-]` (stereo not shown) [Example 198], which herbicidal activity is on record?
Answer: Its herbicidal activity is “good to very good”.

Question: For `Cc1cc(-c2ccccc2C=C2C(=O)N(C)C(Cc3ccccc3)C(=O)N2C)on1` (single isomer, unassigned) [Example 148], which herbicidal activity is on record?
Answer: The herbicidal activity was “good to very good”.

Question: Which herbicidal activity does the source give for `CN1C(=O)C(Cc2ccccc2)N(C)C(=O)C1=Cc1ccccc1-c1ncco1` (single isomer, unassigned) [Example 45] here?
Answer: The herbicidal activity was “good to very good”.

Question: With `CN1C(=O)C(Cc2ccccc2)N(C)C(=O)C1=Cc1ccccc1-c1cnccn1` (single isomer, unassigned) [Example 110] as the compound, how does the herbicidal activity read?
Answer: Its herbicidal activity is “good to very good”.

Question: With `CN1C(=O)C(Cc2ccccc2)N(C)C(=O)C1=Cc1c(F)cccc1I` (stereo not shown) [Example 38] as the compound, how does the herbicidal activity read?
Answer: Its herbicidal activity is “good to very good”.

Question: For `CN1C(=O)C(Cc2ccccc2)N(C)C(=O)C1=Cc1cnccc1I` (stereo not shown) [Example 206], which herbicidal activity is on record?
Answer: Its herbicidal activity is “good to very good”.

Question: For `CN1C(=O)C(Cc2ccccc2)N(C)C(=O)C1=Cc1ccccc1-c1cnccn1` (single isomer, unassigned) [Example 109], which herbicidal activity is on record?
Answer: Its herbicidal activity is “good to very good”.

Question: For `CN1C(=O)C(Cc2ccccc2)N(C)C(=O)C1=Cc1ccccc1-c1cncnc1` (stereo not shown) [Example 124], which herbicidal activity is on record?
Answer: The herbicidal activity was “good to very good”.

Question: Which herbicidal activity does the source give for `Cc1cc(-c2ccccc2C=C2C(=O)N(C)C(Cc3ccccc3)C(=O)N2C)on1` (single isomer, unassigned) [Example 147] here?
Answer: The herbicidal activity was “good to very good”.

Question: For `CN1C(=O)C(Cc2cccs2)N(C)C(=O)C1=Cc1ccccc1I` (stereo not shown) [Example 214], which herbicidal activity is on record?
Answer: The herbicidal activity was “good to very good”.

Question: With `CN1C(=O)C(Cc2ccccc2)N(C)C(=O)C1=Cc1c(Br)ccc(F)c1F` (stereo not shown) [Example 119, 3-benzyl-1,4-dimethyl-6-(2-bromo-5,6-difluorobenzylidene)piperazine-2,5-dione] as the compound, how does the herbicidal activity read?
Answer: Its herbicidal activity is “good to very good”.

Question: For `CN1C(=O)C(Cc2ccccc2)N(C)C(=O)C1=Cc1c(Cl)cccc1I` (stereo not shown) [Example 40], which herbicidal activity is on record?
Answer: Its herbicidal activity is “good to very good”.

Question: Which herbicidal activity does the source give for `CN1C(=O)C(Cc2ccccc2)N(C)C(=O)C1=Cc1cc(F)ccc1Br` (stereo not shown) [Example 62] here?
Answer: Its herbicidal activity is “good to very good”.

Question: With `COC(=O)c1ccccc1C=C1C(=O)N(C)C(Cc2ccccc2)C(=O)N1C` (stereo not shown) [Example 73] as the compound, how does the herbicidal activity read?
Answer: The herbicidal activity was “good to very good”.

Question: For `CN1C(=O)C(Cc2ccccc2)N(C)C(=O)C1=Cc1ccccc1-c1ncccn1` (single isomer, unassigned) [Example 101], which herbicidal activity is on record?
Answer: The herbicidal activity was “good to very good”.

Question: With `CN1C(=O)C(Cc2ccccc2)N(C)C(=O)C1=Cc1ccccc1-c1ncccn1` (single isomer, unassigned) [Example 100] as the compound, how does the herbicidal activity read?
Answer: The herbicidal activity was “good to very good”.

Question: With `CN1C(=O)C(Cc2ccccc2)N(C(=O)c2ccccc2)C(=O)C1=Cc1ccccc1C#N` (stereo not shown) [Example 137] as the compound, how does the herbicidal activity read?
Answer: The herbicidal activity was “good to very good”.

Tested on: SETIT
Experiment: greenhouse experiment, pre-emergence treatment, SETIT
Format: in vivo
Settings: pre-emergence method, application rate 3 kg/ha; scale from 0 to 100
Excerpt: as §1

Question: Which “herbicidal activity against SETIT” value does the source give for `CN1C(=O)C(Cc2cccs2)N(C)C(=O)C1=Cc1ccccc1I` (stereo not shown) [Example 214] here?
Answer: The value was “good (Good herbicidal activity is given for values of at least 70)”.

Tested on: test plants
Experiment: greenhouse experiment, post-emergence treatment, species not stated
Format: in vivo
Settings: post-emergence method; scale from 0 to 100
Excerpt: (§2) The seeds of the test plants were sown separately for each species. For the post-emergence treatment, the test plants were first grown to a height of 3 to 15 cm, depending on the plant habit, and only then treated with the active ingredients which had been suspended or emulsified in water. For this purpose, the test plants were either sown directly and grown in the same containers, or they were first grown separately as seedlings and transplanted into the test containers a few days prior to treatment. Depending on the species, the plants were kept at 10-25° C. or 20-35° C. The test period extended over 2 to 4 weeks. During this time, the plants were tended, and their response to the individual treatments was evaluated. Evaluation was carried out using a scale from 0 to 100. 100 means no emergence of the plants, or complete destruction of at least the aerial moieties, and 0 means no damage, or normal course of growth. Good herbicidal activity is given for values of at least 70 and very good herbicidal activity is given for values of at least 85. The plants used in the greenhouse experiments belonged to the following species: [table]

Question: For `CN1C(=O)C(Cc2ccccc2)N(C)C(=O)C1=Cc1ccccc1-c1cccs1` (stereo not shown) [Example 49], which herbicidal activity is on record?
Answer: Its herbicidal activity is “good to very good”.

Question: With `CN1C(=O)C(Cc2ccccc2)N(C)C(=O)C1=Cc1ccccc1-c1ccco1` (single isomer, unassigned) [Example 47] as the compound, how does the herbicidal activity read?
Answer: Its herbicidal activity is “good to very good”.

Question: Which herbicidal activity does the source give for `CN1C(=O)C(Cc2ccccc2)N(C)C(=O)C1=Cc1ccccc1-c1cccnc1` (stereo not shown) [Example 51] here?
Answer: The herbicidal activity was “good to very good”.

Question: Which herbicidal activity does the source give for `Cc1cccc([N+](=O)[O-])c1C=C1C(=O)N(C)C(Cc2ccccc2)C(=O)N1C` (single isomer, unassigned) [Example 13] here?
Answer: The herbicidal activity was “good to very good”.

Question: Which herbicidal activity does the source give for `CN1C(=O)C(Cc2ccccc2)N(C)C(=O)C1=Cc1ccccc1-c1nccs1` (single isomer, unassigned) [Example 44] here?
Answer: Its herbicidal activity is “good to very good”.

Question: With `CN1C(=O)C(Cc2ccccc2)N(C)C(=O)C1=Cc1ccccc1-c1ccco1` (single isomer, unassigned) [Example 48] as the compound, how does the herbicidal activity read?
Answer: Its herbicidal activity is “good to very good”.

Question: For `CCN1C(=O)C(Cc2ccccc2)N(CC)C(=O)C1=Cc1ccccc1Br` (stereo not shown) [Example 170], which herbicidal activity is on record?
Answer: The herbicidal activity was “good to very good”.

Question: Which herbicidal activity does the source give for `CN1C(=O)[C@H](Cc2ccccc2)N(C)C(=O)C1=Cc1ccccc1[N+](=O)[O-]` (stereo in doubt) [Example 1, 3-Benzyl-1,4-dimethyl-6-(2-nitrobenzylidene)piperazine-2,5-dione] here?
Answer: The herbicidal activity was “good to very good”.

Question: For `CN1C(=O)C(Cc2ccccc2)N(C)C(=O)C1=Cc1cc2c(cc1[N+](=O)[O-])OCO2` (single isomer, unassigned) [Example 16], which herbicidal activity is on record?
Answer: The herbicidal activity was “good to very good”.

Question: Which herbicidal activity does the source give for `C=Cc1ccccc1C=C1C(=O)N(C)C(Cc2ccccc2)C(=O)N1C` (single isomer, unassigned) [Example 129] here?
Answer: Its herbicidal activity is “good to very good”.

Question: Which herbicidal activity does the source give for `CN1C(=O)C(Cc2ccccc2)N(C)C(=O)C1=C(Br)c1ccccc1C#N` (stereo not shown) [Example 160] here?
Answer: Its herbicidal activity is “good to very good”.

Question: For `Cc1coc(-c2ccccc2C=C2C(=O)N(C)C(Cc3ccccc3)C(=O)N2C)n1` (single isomer, unassigned) [Example 52], which herbicidal activity is on record?
Answer: Its herbicidal activity is “good to very good”.

Tested on: not given
Experiment: not given
Settings: not given

Question: For `CN1C(=O)C(Cc2ccccc2)N(C)C(=O)C1=Cc1c(C#N)ccc(F)c1F` (stereo not shown) [Example 115, 3-Benzyl-1,4-dimethyl-6-(2-cyano-5,6-difluorobenzylidene)piperazine-2,5-dione], which melting point is on record?
Answer: Its melting point is 175 °C.

Question: For `CN1C(=O)C(Cc2ccccc2)N(C)C(=O)C1=Cc1c[nH]c2cccc([N+](=O)[O-])c12` (stereo not shown) [185], which melting point is on record?
Answer: The melting point was 238 °C.

Question: With `CN1C(=O)C(Cc2ccccc2)N(C)C(=O)C1=Cc1ncccc1[N+](=O)[O-]` (stereo not shown) [Example 198] as the compound, how does the melting point read?
Answer: The melting point was 165 °C.

Question: Which melting point does the source give for `CN1C(=O)C(Cc2ccccc2)N(C)C(=O)C1=Cc1cccnc1C#N` (stereo not shown) [Example 205] here?
Answer: Its melting point is 218 °C.

Question: With `CN1C(=O)C(Cc2ccccc2)N(C)C(=O)C1=Cc1c[nH]c2cccc(Br)c12` (stereo not shown) [Example 199] as the compound, how does the melting point read?
Answer: The melting point was 236 °C.

Question: For `CN1C(=O)C(Cc2ccccc2)N(C)C(=O)C1=Cc1ccncc1[N+](=O)[O-]` (stereo not shown) [Example 197], which melting point is on record?
Answer: Its melting point is 175 °C.

Question: For `CN1C(=O)C(Cc2ccccc2)N(C)C(=O)C1=Cc1c[nH]c2cccc([N+](=O)[O-])c12` (stereo not shown) [184], which melting point is on record?
Answer: The melting point was 159 °C.

Question: For `CN1C(=O)C(Cc2ccccc2)N(C)C(=O)C1=Cc1ccncc1[N+](=O)[O-]` (stereo not shown) [Example 196], which melting point is on record?
Answer: The melting point was 180 °C.

Tested on: Avena fatua (AVEFA)
Experiment: greenhouse experiment, pre-emergence treatment, AVEFA
Format: in vivo
Settings: pre-emergence method, application rate 1 kg/ha; scale from 0 to 100
Excerpt: as §1

Question: Which “herbicidal activity against AVEFA” value does the source give for `CN1C(=O)C(Cc2ccccc2)N(C)C(=O)C1=Cc1cnccc1I` (stereo not shown) [Example 206] here?
Answer: The value was “good (Good herbicidal activity is given for values of at least 70)”.

Tested on: Lulium perenne (LOLMU)
Experiment: greenhouse experiment, post-emergence treatment, LOLMU
Format: in vivo
Settings: post-emergence method, application rate 1 kg/ha; scale from 0 to 100
Excerpt: as §2

Question: For `CN1C(=O)[C@H](Cc2ccccc2)N(C)C(=O)C1=Cc1ccccc1[N+](=O)[O-]` (stereo in doubt) [Example 1, 3-Benzyl-1,4-dimethyl-6-(2-nitrobenzylidene)piperazine-2,5-dione], which “herbicidal activity against LOLMU” value is on record?
Answer: Its value is “very good (very good herbicidal activity is given for values of at least 85)”.
